Experimental data published in patent publication US20130281313A1, “PROGNOSTIC AND/OR PREDICTIVE BIOMARKERS AND BIOLOGICAL APPLICATIONS THEREOF” (INSTITUT GUSTAVE ROUSSY, priority 2010, published 2013).

What was measured:
A549 cells [1] = assay: Cytofluorometric assessment of cell death (DiOC6(3)/PI co-staining); assay type: cell-based, human; conditions: A549 cells, 75 μM CDDP
Method: Unless otherwise specified, chemicals were purchased from Sigma-Aldrich (St. Louis, USA), culture media and supplements for cell culture from Gibco-Invitrogen (Carlsbad, USA) and plasticware from Corning (Corning, USA). […] Orlistat (Xenical®) was obtained from Roche (Basel, Switzerland). […] Undissolved material was removed by two sequential rounds of centrifugation at 12,000 G (5 min, room temperature, RT), supernatants were collected and stored at −80° C. under protection from light until use. In low-throughput experiments, all cell lines were treated with 2.5 mM pyridoxine (PN), exception made for A549 cells that received 5 mM PN.
To avoid depleting the siRNA library of selected sequences, siRNAs for validation experiments were purchased as custom molecules from Sigma-Aldrich. For low-throughput experiments, (see below for the transfection protocols employed in the siRNA screen), siRNA were transfected in A549 cells with Oligofectamine™ reagent (Invitrogen), following the manufacturer's instructions. Transfection with a non-targeting siRNA (siUNR) was employed as a negative control condition. Forty-eight hours after transfection, siRNA-mediated target downregulation was assessed by immunoblotting (see below).
All cytofluorometric determinations were carried out a FACSCalibur or a FACScan cytofluorometer (BD Biosciences, San Jose, USA) equipped with a 70 μm nozzle.
First line statistical analysis of cytofluorometric results was performed by using the CellQuest™ software (BD Biosciences), by gating on the events characterized by normal forward scatter and side scatter parameters. Apoptosis- and cell cycle-related data were further analyzed with Microsoft Excel (Microsoft Co., Redmond, USA) and statistical significance was assessed by means of two-tailed Student's t test (p<0.05).

Saccharomyces cerevisiae = assay: Yeast clonogenic survival; assay type: cell-based; conditions: yeast cells, pre-incubated with 1 mM AOAA before CDDP
Method: The haploid WT Saccharomyces cerevisiae strain BY4741 (MATa; his3Δ1; leu2Δ0; met15Δ0; ura3Δ0), its diploid counterpart BY4743 (MATa/MATα; his3Δ1/his3Δ1; leu2Δ0/leu2Δ0; MET15/met15Δ0; LYS2/lys2Δ0; ura3Δ0/ura3Δ0) as well as the null mutants employed in this study were obtained from were obtained from Euroscarf (Frankfurt, Germany). For large-scale experiments (see also FIG. 9), yeast cells were cultured on a routine basis at 28° C., on yeast extract peptone dextrose (YEPD) medium containing 1% yeast extract (Difco Laboratories, Detroit, USA), 2% bacto peptone (Difco Laboratories) and […] {Madeo, 2002}. […]
In all settings, cell number was then quantified by means of a CASY® cell counter (Schärfe System, Reutlingen, Germany) and 500 cells from each experimental condition were seeded on three parallel YEPD plates. Following 3 days of incubation at 28° C., plates were finally subjected to the quantification of colony forming units (CFUs). For each genotype or experimental condition, clonogenic survival was calculated as the ratio between the number of CFUs observed in treated and untreated conditions.

[2] = tested on: isolated rat liver mitochondria; assay: Large-amplitude swelling of isolated mitochondria; conditions: cell-free experiments
Method: Mitochondria were isolated from the liver of male Wistar Kyoto rats (Charles River Laboratories Inc., Wilmington, USA) by differential centrifugation, as previously described {Zischka, 2008}. Briefly, immediately after organ collection, livers were homogenized with a glass teflon homogenizer in an isolation buffer containing 10 mM triethanolamine, 10 mM acetic acid, 280 mM sucrose, 0.2 mM EGTA (pH adjusted to 7.4 with KOH). Homogenates were cleared from debris and nuclei by two rounds of centrifugation at 750 G (10 min, 4° C.). […]
For large-amplitude swelling determinations, mitochondria were resuspended in swelling buffer (10 mM Tris-MOPS pH 7.4, 200 mM sucrose, 5 mM succinate, 1 mM phosphate, 10 μM EGTA and 2 μM rotenone) and pre-incubated for 5 min at RT with swelling buffer (negative control) or either of the following permeability transition inhibitors: 5 or 10 μM bongkrekic acid (BA), 1 or 5 μM cyclosporine A (CsA); 0.1 or 0.5 mM reduced glutathione (GSH) or 0.5 or 2 mM N-acetylcysteine (NAC). […] Permeability transition-induced large-amplitude swelling was assessed by measuring light scattering of mitochondrial suspensions at 540 nm on a standard microplate absorbance reader (μ-Quant™, Bio-Tek, Bad Friedrichshall, Germany) every 5 min over a total assay time of 30 min (at RT), as previously described {Zischka, 2008}. […]

A549 cells [3] = assay: Transcriptome studies (mRNA microarrays); assay type: cell-based, human
Method: NSCLC A549 cells were treated with 100 μM CDDP, 75 μM C2-CER or 100 μM CdCl2 for 12 h, or with 50 μM CDDP, C2-CER or CdCl2 for 24 h. Thereafter, cells were collected and lysed for RNA extraction of following established procedures {de La Motte Rouge, 2007}. mRNA expression changes were quantified on G4112A 44 k Whole Human Genome Oligo Microarrays (Agilent Technologies, Santa Clara, USA), as previously reported {Castedo, 2006}. mRNA microarrays underwent standardized post-hybridization processing, image acquisition and analysis (see below) {Castedo, 2006}.
Data from microarray experiments were analyzed with the Rosetta Resolver® System (Rosetta Biosoftware, Seattle, USA). The threshold for statistical significance of probe signals (Intensity) was set at p=10^−5. […] For each mRNA, fold change (FC) was then defined as Intensitysample/Intensitycontrol when Intensitysample>Intensitycontrol, or as—(Intensitycontrol/Intensitysample) when Intensitysample<Intensitycontrol. Ratios were calculated as Intensitysample/Intensitycontrol.

[4] = 12 h, 100 μM CDDP, 75 μM C2-CER or 100 μM CdCl2, vs untreated cells
[5] = 24 h, 50 μM CDDP, C2-CER or CdCl2, vs untreated cells

## NOCC(=O)O [AOAA, aminooxyacetic acid]
A549 cells [1]
  toxicity of CDDP upon addition of the CCBL1 inhibitor: reduced the toxicity of CDDP
Saccharomyces cerevisiae
  toxicity of CDDP upon addition of the CCBL1 inhibitor (clonogenic survival): reduced the toxicity of CDDP

## [Cl][Cd][Cl] [CdCl2, cadmium chloride]
[2]
  direct mitochondrion-permeabilizing effects: can mediate direct mitochondrion-permeabilizing effects
A549 cells [3]; [4]
  Fold change, ADAR (NM_001111) transcript: n.s.
  Fold change, ALDH7AT (NM_001182) transcript: −1.65
  Fold change, CD151 (NM_004357) transcript: n.s.
  Fold change, CLIC1 (NM_001288) transcript: 4.60
  Fold change, COMMO9 (NM_014186) transcript: 1.85
  Fold change, COX5B (NM_001802) transcript: n.s.
  Fold change, COX7C (NM_001867) transcript: n.s.
  Fold change, DHRSX (NM_145177) transcript: 1.64
  Fold change, EBP (NM_006579) transcript: n.s.
  Fold change, EEF2 (NM_001901) transcript: n.s.
  Fold change, FDXK (NM_003681) transcript: n.s.
  Fold change, FN3KRP (NM_024619) transcript: −3.34
  Fold change, HDLBP (NM_005336) transcript: n.s.
  Fold change, HGD (NM_000187) transcript: −2.37
  Fold change, IL6R (NM_000565) transcript: n.s.
  Fold change, KHSRP (NM_003685) transcript: n.s.
  Fold change, LOC389727 (NM_372092) transcript: 2.09
  Fold change, MAT2A (NM_005911) transcript: −4.30
  Fold change, MOL1 (NM_021960) transcript: 1.37
  Fold change, MPP6 (NM_016447) transcript: −3.80
  Fold change, OSTCL (NM_145303) transcript: n.s.
  Fold change, P5MC5 (NM_002805) transcript: n.s.
  Fold change, PLK1S1 (NM_018474) transcript: n.s.
  Fold change, PPM1J (NM_005167) transcript: n.s.
  Fold change, RNF26 (NM_032015) transcript: −1.77
  Fold change, RRAD (NM_004185) transcript: 3.33
  Fold change, SEMA3G (NM_000379) transcript: n.s.
  Fold change, SLC22A16AS (NM_007105) transcript: −1.43
  Fold change, SOCS6 (NM_004232) transcript: n.s.
  Fold change, TMED1 (NM_006858) transcript: n.s.
  Fold change, TRIP4 (NM_016213) transcript: n.s.
  Fold change, UBE2L3 (NM_003347) transcript: n.s.
  Fold change, UBE21 (NM_014176) transcript: −2.06
  Fold change, W282 (NM_018029) transcript: 1.32
A549 cells [3]; [5]
  Fold change, ADAR (NM_001111) transcript: −1.33
  Fold change, ALDH7AT (NM_001182) transcript: −1.82
  Fold change, CD151 (NM_004357) transcript: n.s.
  Fold change, CLIC1 (NM_001288) transcript: −1.29
  Fold change, COMMO9 (NM_014186) transcript: 1.87
  Fold change, COX5B (NM_001802) transcript: n.s.
  Fold change, COX7C (NM_001867) transcript: n.s.
  Fold change, DHRSX (NM_145177) transcript: 1.38
  Fold change, EBP (NM_006579) transcript: n.s.
  Fold change, EEF2 (NM_001901) transcript: n.s.
  Fold change, FDXK (NM_003681) transcript: n.s.
  Fold change, FN3KRP (NM_024619) transcript: −2.05
  Fold change, HDLBP (NM_005336) transcript: n.s.
  Fold change, HGD (NM_000187) transcript: −2.34
  Fold change, IL6R (NM_000565) transcript: n.s.
  Fold change, KHSRP (NM_003685) transcript: n.s.
  Fold change, LOC389727 (NM_372092) transcript: n.s.
  Fold change, MAT2A (NM_005911) transcript: −3.05
  Fold change, MOL1 (NM_021960) transcript: 1.07
  Fold change, MPP6 (NM_016447) transcript: n.s.
  Fold change, OSTCL (NM_145303) transcript: n.s.
  Fold change, P5MC5 (NM_002805) transcript: n.s.
  Fold change, PLK1S1 (NM_018474) transcript: n.s.
  Fold change, PPM1J (NM_005167) transcript: n.s.
  Fold change, RNF26 (NM_032015) transcript: −1.51
  Fold change, RRAD (NM_004185) transcript: 2.04
  Fold change, SEMA3G (NM_000379) transcript: n.s.
  Fold change, SLC22A16AS (NM_007105) transcript: −1.53
  Fold change, SOCS6 (NM_004232) transcript: n.s.
  Fold change, TMED1 (NM_006858) transcript: n.s.
  Fold change, TRIP4 (NM_016213) transcript: n.s.
  Fold change, UBE2L3 (NM_003347) transcript: n.s.
  Fold change, UBE21 (NM_014176) transcript: −1.50
  Fold change, W282 (NM_018029) transcript: n.s.
